Data reported in the NIST ThermoML archive (doi:10.1016/j.fluid.2008.11.001).

Experiments:
[1] = refractive index (Na D-line) (dimensionless); conditions: 298.15 K; 101.33 kPa; Liquid; refractometer
[2] = 298.15 K; 101 kPa; Liquid; Vibrating tube method
[3] = refractive index (Na D-line) (dimensionless); xn = mol fraction of the nth substance listed; conditions: 298.15 K, 101 kPa, Liquid, refractometer
[4] = xn = mol fraction of the nth substance listed; conditions: 298.15 K, 101 kPa, Liquid, Vibrating tube method

CC(C)CC(C)(C)C [2,2,4-trimethylpentane]
Conditions	mass density [kg/m3]	refractive index
[1]	–	1.38898
[2]	688.18	–

CC(C)CC(C)(C)C [2,2,4-trimethylpentane] + COC(=O)OC
x2 = 0
Conditions	mass density [kg/m3]	refractive index
[3]	–	1.38898
[4]	688.18	–

COC(=O)OC [dimethyl carbonate]
Conditions	mass density [kg/m3]	refractive index
[1]	–	1.36654
[2]	1063.04	–

COC(=O)OC [dimethyl carbonate] + CC(C)CC(C)(C)C
Conditions	mass density, [4] [kg/m3]	refractive index, [3]
x1 = 0.0508	697.25	1.38814
x1 = 0.1017	706.78	1.38716
x1 = 0.1995	727.06	1.38504
x1 = 0.3007	751.06	1.38275
x1 = 0.4002	778.05	1.38062
x1 = 0.5002	809.37	1.37889
x1 = 0.5996	845.17	1.37642
x1 = 0.7005	887.53	1.37408
x1 = 0.8002	936.46	1.37109
x1 = 0.9011	994.92	1.36879
x1 = 0.9504	1027.38	1.36722
x1 = 1	1063.04	1.36654

COC(=O)OC [dimethyl carbonate] + CCO
Conditions	mass density, [4] [kg/m3]	refractive index, [3]
x1 = 0.051	805.05	1.36039
x1 = 0.1	823.15	1.3606
x1 = 0.1999	857.92	1.36122
x1 = 0.2998	889.9	1.36186
x1 = 0.4005	919.86	1.36241
x1 = 0.5008	947.72	1.36301
x1 = 0.6011	973.66	1.36375
x1 = 0.6993	997.55	1.36439
x1 = 0.8002	1020.67	1.36504
x1 = 0.9008	1042.49	1.36576
x1 = 0.9514	1053.11	1.36614
x1 = 1	1063.04	1.36654

CCO [ethanol]
Conditions	mass density [kg/m3]	refractive index
[1]	–	1.35933
[2]	785.33	–

CCO [ethanol] + COC(=O)OC
x2 = 0
Conditions	mass density [kg/m3]	refractive index
[3]	–	1.35933
[4]	785.33	–
